In patent US7078522B2, “Pyridopyrimidine or naphthyridine derivative” (Tanabe Seiyaku Co., Ltd., priority 2001, dated 2006):

First: COc1ccc(Cn2c(=O)ccc3cnc(N4CCC[C@H]4CO)nc32)cc1 [Example 16]
Second: COc1ccc(Cn2c(=O)ccc3cnc(N4CCC[C@H]4CO)nc32)cc1Cl [Example 1, (S)-2-(2-Hydroxymethyl-1-pyrrolidinyl)-8-(3-chloro-4-methoxybenzyl)-7,8-dihydro-7-oxo-pyrido[2,3-d]pyrimidine]
The melting point of the first is lower: 135 to 136 °C for the first, 142 to 143 °C for the second.

First: COc1ccc(Cn2c(=O)ccc3cnc(N4CCc5ccccc5C4)nc32)cc1Cl [Example 23]
Second: COc1ccc(Cn2c(=O)ccc3cnc(N4CCc5cncnc5C4)nc32)cc1Cl [Example 29]
The melting point of the first is lower: 167 to 168 °C for the first, 200 to 201 °C for the second.

First: COc1ccc(Cn2c(=O)ccc3cnc(N4CCn5ccnc5C4)nc32)cc1Cl [Example 32]
Second: COc1ccc(Cn2c(=O)ccc3cnc(N4CCNCC4)nc32)cc1Cl [Example 28]
The melting point of the first is lower: 158 to 159 °C for the first, 169.5 to 170 °C for the second.

First: COc1ccc(Cn2c(=O)ccc3cnc(OCc4ccccn4)nc32)cc1Cl [Example 2, 2-(2-Pyridylmethoxy)-8-(3-chloro-4-methoxybenzyl)-7,8-dihyro-7-oxo-pyrido[2,3-d]pyrimidine]
Second: COc1ccc(Cn2c(=O)ccc3cnc(NCc4ncccn4)nc32)cc1Cl [Example 25]
The melting point of the first is lower: 130 to 131 °C for the first, 172 to 173 °C for the second.

First: CN(C)CCn1c(=O)ccc2cnc(N3CCC[C@H]3CO)nc21 [Example 21]
Second: Cn1c(=O)ccc2cnc(N3CCC[C@H]3CO)nc21 [Example 3, (S)-2-(2-Hydroxymethyl-1-pyrrolidinyl)-8-N-mehyl-7,8-dihydro-7-oxo-pyrido[2,3-d]pyrimidine]
The melting point of the first is lower: 102 to 104 °C for the first, 143 to 144 °C for the second.

First: COc1ccc(Cn2c(=O)c(C(=O)NCc3ncccn3)cc3cnc(N4CCC[C@H]4CO)nc32)cc1Cl
Second: CNC(=O)c1cc2cnc(N3CCC[C@H]3CO)nc2n(Cc2ccc(OC)c(Cl)c2)c1=O
The melting point of the first is higher: 216 to 218 °C for the first, 191 to 191.5 °C for the second.

First: COC(=O)c1cc2cnc(N3CCCCC3)nc2n(Cc2ccc(OC)c(Cl)c2)c1=O [Example 22]
Second: COc1ccc(Cn2c(=O)c(C(=O)O)cc3cnc(N4CCC[C@H]4CO)nc32)cc1Cl [Example 33]
The melting point of the first is lower: 201 to 203 °C for the first, 258 to 264 °C for the second.

First: COc1ccc(Cn2c(=O)ccc3cnc(N4CCOC(CO)C4)nc32)cc1Cl (stereo not shown) [Example 27]
Second: COc1ccc(Cn2c(=O)ccc3cnc(N4CCC[C@@H]4CO)nc32)cc1Cl [Example 26]
The melting point of the first is higher: 207 to 209 °C for the first, 139 to 141 °C for the second.

First: COc1ccc(Cn2c(=O)ccc3cnc(N4CCC[C@H]4CO)nc32)cc1OC [Example 17]
Second: O=c1ccc2cnc(N3CCC[C@H]3CO)nc2n1Cc1ccc2c(c1)OCO2 [Example 18]
The melting point of the first is lower: 132 °C for the first, 154 to 155 °C for the second.

Compared with COc1ccc(Cn2c(=O)c(C(=O)NCCO)cc3cnc(N4CCC[C@H]4CO)nc32)cc1Cl, COC(=O)c1c(-c2nccn2C)c2cnc(N3CCC[C@H]3CO)nc2n(Cc2ccc(OC)c(Cl)c2)c1=O [Example 13, (S)-2-(2-Hydroxymethyl-1-pyrrolidinyl)-5-(1-methyl-2-imidazolyl)-6-methoxycarbonyl-8-(3-chloro-4-methoxybenzyl)-7,8-dihydro-7-oxo-pyrido[2,3-d]pyrimidine] is lower in melting point: 207 to 210 °C for the first, 142 to 145 °C for the second.

Compared with COC(=O)c1cc2cnc(N3CCC[C@H]3CO)nc2n(Cc2ccccn2)c1=O [Example 42], O=c1ccc2cnc(N3CCC[C@H]3CO)nc2n1Cc1ncccn1 [Example 19] is lower in melting point: 199 to 201 °C for the first, 150 to 151 °C for the second.

Compared with COc1ccc(Cn2c(=O)ccc3cnc(N)nc32)cc1Cl [Example 31], COc1ccc(Cn2c(=O)ccc3cnc(SC)nc32)cc1Cl [Example 24] is lower in melting point: 234 to 242 °C for the first, 189 to 190 °C for the second.

First: COc1ccc(Cn2c(=O)cc(-c3ccccn3)c3cnc(N4CCC[C@H]4CO)nc32)cc1Cl [Example 12, (S)-2-(2-Hydroxymethyl-1-pyrrolidinyl)-5-(2-pyridyl)-8-(3-chloro-4-methoxybenzyl)-7,8-dihydro-7-oxo-pyrido[2,3-d]pyrimidine]
Second: COc1ccc(Cn2c(=O)ccc3ccc(N4CCC[C@H]4CO)nc32)cc1Cl [Example 10, (S)-2-(2-Hydroxymethyl-1-pyrrolidinyl)-8-(3-chloro-4-methoxybenzyl)-7,8-dihydro-7-oxo-1,8-naphthyridine]
The melting point of the first is higher: 183.5 to 186.5 °C for the first, 131 to 134 °C for the second.

Compared with O=c1ccc2cnc(N3CCC[C@H]3CO)nc2[nH]1 [Example 15], O=c1ccc2cnc(N3CCC[C@H]3CO)nc2n1Cc1ccncc1 [Example 20] is higher in melting point: 99 to 103 °C for the first, 143 to 144 °C for the second.
